Laboratory results as given in ChEMBL document CHEMBL1201862, “PubChem BioAssay data set” (2004).
The source made the active and inactive calls.

What was measured:
[1] = inhibition of ADAM10 peptide cleavage – biochemical, FRET peptide substrate, recombinant human ADAM10, selectivity assay for ADAM17 exosite inhibitor project, dose response (AID 743259);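 further: ADAM10 enzyme cleaving a FRET peptide substrate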
[2] = target: Disintegrin and metalloproteinase domain-containing protein 17 (Homo sapiens, UniProt P78536); experiment: exosite inhibitors of ADAM17, dose response, biochemical (AID 743260)
Disintegrin and metalloproteinase domain-containing protein 17, sequence (P78536 whole entry, the tested form may be a part): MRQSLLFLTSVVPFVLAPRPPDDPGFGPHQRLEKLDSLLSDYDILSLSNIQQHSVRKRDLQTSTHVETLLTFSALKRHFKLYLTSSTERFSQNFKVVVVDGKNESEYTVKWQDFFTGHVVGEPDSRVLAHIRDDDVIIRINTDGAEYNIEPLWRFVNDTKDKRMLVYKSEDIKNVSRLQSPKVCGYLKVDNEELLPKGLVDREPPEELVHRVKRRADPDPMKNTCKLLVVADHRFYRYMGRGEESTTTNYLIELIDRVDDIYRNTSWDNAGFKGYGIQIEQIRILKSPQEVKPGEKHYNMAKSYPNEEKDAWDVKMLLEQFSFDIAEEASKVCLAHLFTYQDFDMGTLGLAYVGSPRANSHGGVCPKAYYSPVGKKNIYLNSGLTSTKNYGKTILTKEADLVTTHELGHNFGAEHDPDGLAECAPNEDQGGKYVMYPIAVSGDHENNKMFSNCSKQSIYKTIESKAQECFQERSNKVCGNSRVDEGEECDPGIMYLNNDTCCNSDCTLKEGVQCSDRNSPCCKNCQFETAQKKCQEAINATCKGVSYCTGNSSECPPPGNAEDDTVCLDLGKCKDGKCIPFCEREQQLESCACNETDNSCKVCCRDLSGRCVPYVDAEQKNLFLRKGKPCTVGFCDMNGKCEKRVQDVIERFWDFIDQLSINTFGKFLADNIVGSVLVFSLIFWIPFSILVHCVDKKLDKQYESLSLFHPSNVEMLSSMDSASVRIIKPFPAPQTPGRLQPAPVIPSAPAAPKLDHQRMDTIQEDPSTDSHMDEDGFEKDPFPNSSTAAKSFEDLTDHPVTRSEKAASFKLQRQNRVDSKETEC

[3] = growth inhibition of SK-MEL-5 melanoma cells – cell-based, CellTiter-Glo luminescence, dry powder, set 8, orthogonal assay for MITF inhibitor project, dose response (AID 651586); format: functional
[4] = MITF: Counter assay: A375 proliferation Measured in Cell-Based System Using Plate Reader - 2084-03_Inhibitor_Dose_DryPowder_Activity_Set8.; format: functional; conditions: A-375
[5] = cytotoxicity in MITF-independent A375 cells – cell-based, CellTiter-Glo luminescence, dry powder, set 9, counter-screen for MITF modulator project, dose response (AID 651591); format: functional; conditions: A-375
[6] = inhibitors of TRPM1-promoter reporter in SK-MEL-5 – cell-based, luciferase, dry powder, set 8, MITF inhibitor project, dose response (AID 624430); format: functional
[7] = inhibitors of TRPM1-promoter reporter in SK-MEL-5 – cell-based, luciferase, dry powder, set 9, MITF inhibitor project, dose response (AID 651588); format: functional
[8] = MITF Orthogonal Assay: MALME3 CTG Assay Measured in Cell-Based System Using Plate Reader - 2084-04_Inhibitor_Dose_DryPowder_Activity_Set6.; format: functional; conditions: MALME-3
[9] = growth inhibition of MALME3 cells – cell-based, CellTiter-Glo luminescence, dry powder, set 5, orthogonal assay for MITF inhibitor project, dose response (AID 651584); format: functional; conditions: MALME-3
[10] = MITF Orthogonal Assay: SK-MEL-5 CTG Assay Measured in Cell-Based System Using Plate Reader - 2084-02_Inhibitor_Dose_DryPowder_Activity_Set7.; format: functional
[11] = target: 1-phosphatidylinositol 4,5-bisphosphate phosphodiesterase gamma-1 (Homo sapiens, UniProt P19174); experiment: Counterscreen for inhibitors of phospholipase C isozymes (PLC-B3): Fluorescence-based biochemical high throughput dose response assay to identify inhibitors of phospholipase C isozymes (PLC-gamma1).
1-phosphatidylinositol 4,5-bisphosphate phosphodiesterase gamma-1, sequence (P19174 whole entry): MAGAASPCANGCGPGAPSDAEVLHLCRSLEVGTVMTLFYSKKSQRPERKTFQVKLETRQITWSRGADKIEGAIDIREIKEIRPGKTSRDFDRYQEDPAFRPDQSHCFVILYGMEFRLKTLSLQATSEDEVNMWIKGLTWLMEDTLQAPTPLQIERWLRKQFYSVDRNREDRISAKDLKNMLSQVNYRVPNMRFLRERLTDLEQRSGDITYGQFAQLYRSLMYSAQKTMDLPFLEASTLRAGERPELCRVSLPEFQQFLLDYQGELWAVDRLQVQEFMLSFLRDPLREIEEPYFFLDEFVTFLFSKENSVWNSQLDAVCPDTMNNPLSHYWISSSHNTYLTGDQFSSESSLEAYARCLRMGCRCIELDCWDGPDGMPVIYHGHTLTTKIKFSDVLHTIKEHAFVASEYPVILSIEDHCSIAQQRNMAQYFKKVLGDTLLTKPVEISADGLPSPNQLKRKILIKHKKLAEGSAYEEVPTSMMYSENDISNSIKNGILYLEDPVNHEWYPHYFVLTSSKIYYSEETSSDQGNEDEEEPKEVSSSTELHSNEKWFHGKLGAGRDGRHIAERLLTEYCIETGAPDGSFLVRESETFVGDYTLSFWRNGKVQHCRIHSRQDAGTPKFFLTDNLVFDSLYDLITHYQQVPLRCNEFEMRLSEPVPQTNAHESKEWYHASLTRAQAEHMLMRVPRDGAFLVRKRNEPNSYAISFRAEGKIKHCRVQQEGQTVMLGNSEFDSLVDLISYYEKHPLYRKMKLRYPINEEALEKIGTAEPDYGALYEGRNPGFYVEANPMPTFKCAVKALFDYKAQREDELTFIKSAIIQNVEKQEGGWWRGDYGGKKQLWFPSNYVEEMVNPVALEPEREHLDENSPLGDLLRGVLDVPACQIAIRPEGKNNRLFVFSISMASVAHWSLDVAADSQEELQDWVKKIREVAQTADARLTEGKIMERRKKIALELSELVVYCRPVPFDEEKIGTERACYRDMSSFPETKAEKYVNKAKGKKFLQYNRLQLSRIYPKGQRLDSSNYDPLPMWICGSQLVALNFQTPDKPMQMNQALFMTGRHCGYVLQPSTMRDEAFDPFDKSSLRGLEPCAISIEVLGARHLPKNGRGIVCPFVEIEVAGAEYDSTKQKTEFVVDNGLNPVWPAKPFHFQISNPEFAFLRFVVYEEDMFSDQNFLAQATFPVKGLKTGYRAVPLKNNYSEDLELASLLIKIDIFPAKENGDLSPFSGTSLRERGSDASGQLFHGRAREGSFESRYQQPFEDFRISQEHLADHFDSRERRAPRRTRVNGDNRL

[12] = target: 1-phosphatidylinositol 4,5-bisphosphate phosphodiesterase beta-3 (Homo sapiens, UniProt Q01970); experiment: Fluorescence-based biochemical high throughput dose response assay to identify inhibitors of phospholipase C isozymes (PLC-B3).
[13] = ATP-based viability loss in HEK293T cells – cell-based, CellTiter-Glo luminescence, cherry-picked samples, set 4, cytotoxicity control, dose response (AID 743441); format: functional; conditions: HEK293
[14] = A549 lung cell viability reduction – CellTiter-Glo luminescence, cherry-pick, cytotoxicity control, dose response (AID 743484); format: functional, cell-based
[15] = viability loss in A549 lung cells – cell-based, 24 h, CellTiter-Glo luminescence, cherry-picks, cytotoxicity control, dose response (AID 1053115); format: functional; conditions: A549, 24 h
[16] = target: Kallikrein-7 (Homo sapiens, UniProt P49862); experiment: Fluorescence Intensity-based biochemical primary high throughput dose response assay to identify activators of kallikrein-7 (K7) zymogen.
Kallikrein-7, sequence (P49862 whole entry): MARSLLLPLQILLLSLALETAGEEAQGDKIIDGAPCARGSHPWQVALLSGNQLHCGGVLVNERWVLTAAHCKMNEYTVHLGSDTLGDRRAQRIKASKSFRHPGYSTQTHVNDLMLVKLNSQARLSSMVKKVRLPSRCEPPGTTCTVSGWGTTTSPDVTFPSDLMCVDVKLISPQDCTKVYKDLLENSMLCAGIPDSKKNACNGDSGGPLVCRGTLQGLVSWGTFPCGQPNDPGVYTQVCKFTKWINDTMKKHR

[17] = tested on: HEK293; experiment: viability loss in HEK293T cells – cell-based, ATP luminescence, cherry-pick samples, cytotoxicity control, dose response (AID 687005); format: functional; conditions: Homo sapiens;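 further: cells exposed to compound for 48 hours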
[18] = HEK293 Cytotoxicity Assay Measured in Cell-Based System Using Plate Reader - 7071-01_Inhibitor_Dose_CherryPick_Activity_Set2.; format: functional
[19] = tested on: HeLa; experiment: viability loss in HeLa cells – cell-based, ATP luminescence, cherry-pick samples, cytotoxicity control, dose response (AID 687004); format: functional; conditions: Homo sapiens
[20] = target: T1, Oxysterols receptor LXR-beta (Homo sapiens, UniProt P55055); format: functional, cell-based;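 further: agonist activity at LXR measured by a cell-based luminescence readout across a dose range, run as a counterscreen for daf-12 agonists; HEK293 cells with Gal4-LXR fusion and GAL4-driven luciferase reporter; potency for activation of Gal4-LXR reporter so compounds are agonists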
T1 sequence (P55055 whole entry): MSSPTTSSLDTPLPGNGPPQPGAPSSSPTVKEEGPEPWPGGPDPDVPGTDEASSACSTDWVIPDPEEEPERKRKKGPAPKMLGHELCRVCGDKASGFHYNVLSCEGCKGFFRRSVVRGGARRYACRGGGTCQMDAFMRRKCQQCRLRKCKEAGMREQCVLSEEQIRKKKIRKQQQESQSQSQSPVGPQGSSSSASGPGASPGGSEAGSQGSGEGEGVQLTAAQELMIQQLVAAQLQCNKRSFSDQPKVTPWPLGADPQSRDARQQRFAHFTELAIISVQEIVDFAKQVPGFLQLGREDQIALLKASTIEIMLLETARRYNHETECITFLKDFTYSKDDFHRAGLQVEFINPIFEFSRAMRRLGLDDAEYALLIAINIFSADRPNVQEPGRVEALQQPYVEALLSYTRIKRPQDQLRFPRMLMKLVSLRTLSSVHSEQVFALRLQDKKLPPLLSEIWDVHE

[21] = inhibitors of non-replicating M. tuberculosis, dose response, luciferase, dry powder (AID 651620); format: functional; conditions: Mycobacterium tuberculosis
[22] = growth inhibition of replicating M. tuberculosis, dose response, counter-screen, dry powder, IC90 (AID 651617); format: functional; conditions: Mycobacterium tuberculosis
[23] = inhibitors of non-replicating M. tuberculosis, dose response, luciferase, dry powder (AID 651619); format: functional; conditions: Mycobacterium tuberculosis
[24] = target: fMet-Leu-Phe receptor (Homo sapiens, UniProt P21462); experiment: formyl peptide receptor binders – dose response (AID 519); format: functional
fMet-Leu-Phe receptor, sequence (P21462 whole entry, the tested form may be a part): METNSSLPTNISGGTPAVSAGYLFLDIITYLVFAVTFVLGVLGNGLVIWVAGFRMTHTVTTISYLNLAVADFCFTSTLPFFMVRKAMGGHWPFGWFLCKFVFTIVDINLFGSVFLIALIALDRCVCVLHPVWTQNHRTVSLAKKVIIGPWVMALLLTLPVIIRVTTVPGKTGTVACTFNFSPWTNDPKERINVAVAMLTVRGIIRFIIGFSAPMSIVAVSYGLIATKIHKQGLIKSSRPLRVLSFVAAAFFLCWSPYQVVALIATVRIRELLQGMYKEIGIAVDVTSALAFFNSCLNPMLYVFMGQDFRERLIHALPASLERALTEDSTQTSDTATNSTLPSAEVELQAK

[25] = target: E3 ubiquitin-protein ligase UHRF1 (Homo sapiens, UniProt Q96T88); experiment: Counterscreen for inhibitors of 5-meCpG-binding domain protein 2 (MBD2): TRFRET-based biochemical high throughput dose response assay to identify inhibitors of binding of ubiquitin-like with PHD and ring finger domains 1 (UHRF1) to methylated oligonucleotide.
[26] = Counterscreen for activators of the function of SWI/SNF related, matrix associated, actin dependent regulator of chromatin, subfamily a, member 2 (SMARCA2, BRM): Luminescence-based cell-based high throughput dose response assay to identify non-selective compounds using the VP16 reporter assay.; format: functional
[27] = target: SWI/SNF-related matrix-associated actin-dependent regulator of chromatin subfamily A member 2 (Homo sapiens, UniProt P51531); experiment: Luminescence-based cell-based high throughput dose response assay to identify activators of the function of SWI/SNF related, matrix associated, actin dependent regulator of chromatin, subfamily a, member 2 (SMARCA2, BRM).; format: functional
SWI/SNF-related matrix-associated actin-dependent regulator of chromatin subfamily A member 2, sequence (P51531 whole entry): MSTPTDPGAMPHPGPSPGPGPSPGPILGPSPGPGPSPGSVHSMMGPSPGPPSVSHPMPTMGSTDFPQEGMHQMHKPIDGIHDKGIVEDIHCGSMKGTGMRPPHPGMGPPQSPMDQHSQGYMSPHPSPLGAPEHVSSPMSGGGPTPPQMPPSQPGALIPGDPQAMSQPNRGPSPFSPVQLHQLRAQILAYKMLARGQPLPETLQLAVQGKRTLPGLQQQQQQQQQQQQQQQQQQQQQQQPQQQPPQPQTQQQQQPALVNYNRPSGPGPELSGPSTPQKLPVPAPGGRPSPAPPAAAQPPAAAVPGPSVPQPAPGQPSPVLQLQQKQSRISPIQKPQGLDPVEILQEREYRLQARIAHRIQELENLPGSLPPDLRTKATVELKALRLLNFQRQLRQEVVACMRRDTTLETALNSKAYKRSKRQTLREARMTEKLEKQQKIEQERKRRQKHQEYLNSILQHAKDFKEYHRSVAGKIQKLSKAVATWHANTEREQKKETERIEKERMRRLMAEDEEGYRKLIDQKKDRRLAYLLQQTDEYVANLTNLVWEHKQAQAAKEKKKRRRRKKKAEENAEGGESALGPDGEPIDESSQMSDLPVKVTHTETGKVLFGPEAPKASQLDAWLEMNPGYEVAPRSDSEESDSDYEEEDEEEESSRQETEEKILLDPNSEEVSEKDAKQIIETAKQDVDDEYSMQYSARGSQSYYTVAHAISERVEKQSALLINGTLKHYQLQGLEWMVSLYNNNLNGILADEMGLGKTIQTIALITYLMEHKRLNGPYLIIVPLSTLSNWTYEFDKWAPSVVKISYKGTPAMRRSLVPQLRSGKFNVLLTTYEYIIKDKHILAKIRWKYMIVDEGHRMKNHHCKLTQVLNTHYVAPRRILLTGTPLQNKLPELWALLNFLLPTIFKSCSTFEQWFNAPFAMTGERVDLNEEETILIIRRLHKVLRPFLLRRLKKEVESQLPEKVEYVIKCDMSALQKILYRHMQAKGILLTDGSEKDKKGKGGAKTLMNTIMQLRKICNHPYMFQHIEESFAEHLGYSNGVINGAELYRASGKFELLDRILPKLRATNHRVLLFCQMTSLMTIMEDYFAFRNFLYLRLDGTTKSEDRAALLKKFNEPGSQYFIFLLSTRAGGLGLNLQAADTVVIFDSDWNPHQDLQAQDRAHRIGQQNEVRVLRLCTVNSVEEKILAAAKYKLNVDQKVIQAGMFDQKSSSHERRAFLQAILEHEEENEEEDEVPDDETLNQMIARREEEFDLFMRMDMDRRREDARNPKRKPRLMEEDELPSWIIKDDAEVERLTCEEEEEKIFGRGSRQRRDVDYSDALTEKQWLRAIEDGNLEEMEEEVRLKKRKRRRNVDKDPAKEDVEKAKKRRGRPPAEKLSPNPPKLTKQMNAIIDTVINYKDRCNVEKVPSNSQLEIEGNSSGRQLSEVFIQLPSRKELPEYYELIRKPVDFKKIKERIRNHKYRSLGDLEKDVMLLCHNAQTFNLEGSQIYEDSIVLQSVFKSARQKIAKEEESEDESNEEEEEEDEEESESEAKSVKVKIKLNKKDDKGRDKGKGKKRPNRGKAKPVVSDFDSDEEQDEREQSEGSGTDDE

[28] = target: Caspase-6 (Homo sapiens, UniProt P55212); experiment: inhibition of CASP6 peptide cleavage – biochemical, VEID-R110 fluorescence, cherry-pick, dose response (AID 720632)
Caspase-6, sequence (P55212 24-179 limits assumed): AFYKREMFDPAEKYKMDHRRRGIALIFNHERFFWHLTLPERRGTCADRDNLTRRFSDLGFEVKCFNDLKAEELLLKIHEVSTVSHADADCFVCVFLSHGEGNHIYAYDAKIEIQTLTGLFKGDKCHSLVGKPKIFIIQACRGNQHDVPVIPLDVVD
Caspase-6, sequence (P55212 194-293 limits assumed): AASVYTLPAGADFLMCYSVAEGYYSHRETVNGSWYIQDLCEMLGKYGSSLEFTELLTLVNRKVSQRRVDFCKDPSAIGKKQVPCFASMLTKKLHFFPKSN

[29] = Counterscreen for inhibitors of Trypanosoma brucei methionyl tRNA synthetase (MetRS): Luminescence-based cell-based high throughput dose response assay to identify compounds that are cytotoxic to Jurkat human T lymphocyte cells.; format: functional
[30] = target: T2, Methionyl-tRNA synthetase, putative (Trypanosoma brucei brucei, UniProt Q38C91); format: functional, Trypanosoma brucei brucei strain 927/4 GUTat10.1
T2 sequence (Q38C91 whole entry): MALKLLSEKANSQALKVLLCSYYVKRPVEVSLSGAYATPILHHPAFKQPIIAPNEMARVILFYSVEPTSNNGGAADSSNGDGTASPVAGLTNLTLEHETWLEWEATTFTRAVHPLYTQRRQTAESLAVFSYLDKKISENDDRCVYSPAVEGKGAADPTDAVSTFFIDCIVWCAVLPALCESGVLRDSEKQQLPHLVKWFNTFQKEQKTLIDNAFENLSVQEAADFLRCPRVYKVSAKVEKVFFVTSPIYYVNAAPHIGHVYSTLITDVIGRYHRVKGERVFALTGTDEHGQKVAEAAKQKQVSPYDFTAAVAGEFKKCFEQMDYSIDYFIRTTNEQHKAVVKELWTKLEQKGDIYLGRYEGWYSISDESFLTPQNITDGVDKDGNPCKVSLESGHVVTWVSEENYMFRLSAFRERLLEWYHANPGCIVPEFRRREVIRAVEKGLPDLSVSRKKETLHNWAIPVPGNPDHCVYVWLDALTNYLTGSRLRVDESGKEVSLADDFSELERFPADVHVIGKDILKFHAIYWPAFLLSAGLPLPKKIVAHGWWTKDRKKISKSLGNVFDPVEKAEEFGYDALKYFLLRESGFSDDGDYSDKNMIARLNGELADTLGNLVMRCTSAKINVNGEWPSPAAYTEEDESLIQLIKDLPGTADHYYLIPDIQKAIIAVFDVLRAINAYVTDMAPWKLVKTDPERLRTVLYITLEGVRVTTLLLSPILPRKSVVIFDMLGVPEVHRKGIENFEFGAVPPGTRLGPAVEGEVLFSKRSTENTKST

[31] = target: T2, Methionyl-tRNA synthetase, putative; format: functional, Trypanosoma brucei brucei strain 927/4 GUTat10.1; remark: listed apart in the source
[32] = Late stage counterscreen for inhibitors of Trypanosoma brucei methionyl tRNA synthetase (MetRS): Luminescence-based cell-based high throughput dose response assay to identify compounds that are cytotoxic to Jurkat human T lymphocyte cells.; format: functional
[33] = target: Potassium channel subfamily K member 3 (Homo sapiens, UniProt O14649); experiment: inhibition of human KCNK3 channel flux – CHO cells, FluxOR thallium flux, SAR follow-up (AID 652212); format: functional
Potassium channel subfamily K member 3, sequence (O14649 whole entry): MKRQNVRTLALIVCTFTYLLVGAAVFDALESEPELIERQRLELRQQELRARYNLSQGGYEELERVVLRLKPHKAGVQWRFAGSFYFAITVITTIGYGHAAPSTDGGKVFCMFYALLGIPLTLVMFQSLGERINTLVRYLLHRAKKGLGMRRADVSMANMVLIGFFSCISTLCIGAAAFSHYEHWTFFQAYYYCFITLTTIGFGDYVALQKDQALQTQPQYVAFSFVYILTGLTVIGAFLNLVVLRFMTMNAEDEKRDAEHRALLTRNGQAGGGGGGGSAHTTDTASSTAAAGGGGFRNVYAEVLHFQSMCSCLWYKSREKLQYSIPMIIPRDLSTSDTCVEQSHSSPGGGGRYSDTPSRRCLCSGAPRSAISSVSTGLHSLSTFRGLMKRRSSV

[34] = PAX8-dependent cell viability loss – plate reader, dry powder, dose response (AID 743049); format: functional, cell-based
[35] = OVCAR-3 cell viability loss – plate reader, dry powder samples, PAX8 inhibitor project, dose response (AID 743044); format: functional, cell-based
[36] = PAX5 cellular inhibition readout – cell-based, plate reader, dry powder samples, selectivity assay for PAX8 inhibitor project, dose response (AID 743047); format: functional;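 further: HEK293 cells carrying a Pax5 driven CD19 promoter luciferase reporter; potency of inhibitors that lower reporter luminescence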
[37] = inhibitors acting on PAX2 in cells – cell-based, plate reader, dry powder samples, selectivity assay for PAX8 inhibitor project, dose response (AID 743048); format: functional;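 further: HEK293 cells carrying a WT1 promoter luciferase reporter driven by expressed Pax2; potency is for inhibition of Pax2 driven reporter signal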
[38] = OV-90 cell viability loss – plate reader, dry powder, SA8, PAX8 inhibitor project, dose response (AID 743149); format: functional, cell-based
[39] = target: Paired box protein Pax-8 (Homo sapiens, UniProt Q06710); experiment: PAX8 transcriptional activity inhibition in RMG-I – RMG-I cells, luciferase, cherry-pick, dose response (AID 687027); format: functional, cell-based;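 further: luciferase reporter driven by Pax8 target thyroperoxidase promoter measured by SteadyGlo luminescence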
[40] = Late stage assay provider results from the probe development effort to identify selective inhibitors of heat shock protein 90 (HSP90): Absorbance-based cell proliferation assay in MCF7 cells.; format: functional
[41] = Late stage assay provider results from the probe development effort to identify selective inhibitors of heat shock protein 90 (HSP90): Absorbance-based cell proliferation assay in SKBR3 cells.; format: functional; conditions: SK-BR-3

CC(C)C(NS(=O)(=O)c1c(Cl)cccc1Cl)C(=O)OCC(=O)c1c[nH]c2ccccc12 (stereo unspecified)
IC50 [1]: > 7.72 µM (active) | IC50 [2]: > 69.5 µM (inactive)

CC(C)N1CCN(C2=C(Nc3ccc(F)cc3)C(=O)c3ccccc3C2=O)CC1
AC50 [3]: > 70 µM (inactive) | AC50 [4]: > 70 µM (inactive) | AC50 [5]: > 70 µM (inactive) | AC50 [6]: 3.6 µM (active) | AC50 [7]: 9.77 µM (active) | AC50 [8]: 38.6 µM (active) | AC50 [9]: 38.6 µM (active) | AC50 [10]: 10.5 µM (active)

Cc1ccc(NC(=O)c2nn(C34CC5CC(CC(C5)C3)C4)cc2[N+](=O)[O-])cc1
IC50 [11]: > 122 µM (inactive) | IC50 [12]: > 122 µM (inactive)

C=CCNC(=O)c1ccccc1NC(=O)c1ccc(Cl)c(S(=O)(=O)Nc2cccc(C)c2C)c1
AC50 [13]: 36.7 µM (active) | AC50 [14]: 30.1 µM (active)

N#Cc1ccc(-c2ccc3c(c2)[C@H]2[C@H](CCN2C(=O)C2CCCCC2)[C@H](CO)N3)cc1
AC50 [15]: 42 µM (active)

CSc1ccc(/C=C/C(=O)OCC(=O)NC2CCS(=O)(=O)C2)cc1 (stereo unspecified)
EC50 [16]: > 69.5 µM (inactive)

Cc1ccccc1CN(C)C[C@H]1OCc2cn(nn2)CCCC(=O)N([C@@H](C)CO)C[C@H]1C
AC50 [17]: 46.7 µM (active) | AC50 [18]: 46.7 µM (active) | AC50 [19]: 14.7 µM (active)

CC(C)C(N)c1csc(Nc2nncc3ccccc23)n1 (stereo unspecified)
EC50 [20]: > 67.1 µM (inactive)

c1ccc(-n2cc(CSc3nnc(C4CCCC4)o3)nn2)cc1
IC90 [21]: 1 µM (active) | IC90 [22]: 125 µM (active) | IC90 [23]: 1 µM (active)

COc1ccc(OC)c(C2C(C(=O)c3ccccc3)=C(O)C(=O)N2Cc2ccco2)c1 (stereo unspecified)
Ki [24]: 3.4 µM (active)

COc1cccc2nc3c(C(=O)NCCN(C)C)cccc3cc12
IC50 [25]: > 43.8 µM (inactive) | EC50 [26]: > 91.2 µM (inactive) | EC50 [27]: > 10.1 µM (inactive)

Cc1cc(C2(O)C(=O)Nc3ccccc32)ccc1F (stereo unspecified)
AC50 [28]: 13 µM (active)

CN(CC(=O)Nc1ccc(Cl)cc1)C(=O)c1ccc(-n2cncn2)c([N+](=O)[O-])c1
IC50 [29]: 83.3 µM (inactive) | IC50 [30]: 2 µM (active) | IC50 [31]: 1.18 µM (active) | IC50 [32]: > 83.3 µM (inactive)

O=C(Nc1cccc(NC(=O)c2cccc(F)c2)c1)c1ccccc1
IC50 [33]: 46 nM (active)

CC(=O)N1CCOc2ccc(S(=O)(=O)N3CCN(c4cccc(C(F)(F)F)c4)CC3)cc21
AC50 [34]: 94.5 µM (active) | AC50 [35]: 17.9 µM (active) | AC50 [36]: 45.3 µM (active) | AC50 [37]: 30.9 µM (active) | AC50 [38]: 63 µM (active) | AC50 [39]: 2.36 µM (active)

COc1ccc(NC(=O)c2ccc(NC(=O)c3coc(=O)c(Br)c3)cc2)cc1
IC50 [40]: 12.1 µM (inactive) | IC50 [41]: 27.2 µM (inactive)
